Test results taken from patent US20260263450A1, “USE OF GLYT1 INHIBITOR IN TREATMENT OF ORGAN FIBROSIS” (TIANJIN MEDICAL UNIVERSITY, priority 2023, published 2026).

Assays:
A549 cells [1] = assay: CCK-8 cell proliferation and cytotoxicity analysis of A549 cells; type: cell-based; conditions: 72 h
From the text: A CCK-8 kit was used to detect cell proliferation and cytotoxicity. Its working principle is as follows: In the presence of an electron coupling reagent, WST-8 (chemical name: 2-(2-methoxy-4-nitrophenyl)-3-(4-nitrophenyl)-5-(2,4-disulfophenyl)-2H-tetrazolium monosodium salt) can be reduced by mitochondrial dehydrogenases to produce a highly water-soluble orange-yellow formazan product. The intensity of the color is proportional to cell proliferation and inversely proportional to cytotoxicity. […] The OD value measured at a wavelength of 450 nm via a microplate reader can indirectly reflect the number of viable cells.
The CCK-8 assay was used to detect the viability of A549 cells after treatment with different concentrations of BLM and GlyT1 inhibitor for 72 h. […] In this example, BLM, which maintained the viability of A549 cells at approximately 80%, was selected for stimulation, and A549 cells were stimulated with 25 μM BLM to establish the cell model. […] At a concentration of 380 nM, the viability of A549 cells was greater than 50%. To obtain stable experimental results more easily, 190 nM GLYT1 IN was selected as the treatment concentration in subsequent studies.

A549 cells [2] = assay: Western blot of pulmonary fibrosis-related indicators in the in vitro bleomycin-induced pulmonary fibrosis model; type: cell-based; conditions: 25 μM BLM + 190 nM GLYT1 IN for 72 h; compared with BLM group
Procedure: A bleomycin-induced pulmonary fibrosis model was established in vitro, with simultaneous intervention via a GLYT1 inhibitor.
For the in vitro bleomycin-induced pulmonary fibrosis model, A549 cells were divided into […] treatment groups: the NC group (control group: treated with normal saline), the BLM group (bleomycin-treated group: treated with 25 μM BLM for 72 h), and the BLM+GLYT1 IN group (bleomycin and glycine transporter 1 inhibitor-treated group: treated with 25 μM BLM for 72 h and 190 nM GLYT1 IN for 72 h).
Western blotting was used to detect the expression levels of pulmonary fibrosis-related indicators: collagen type I alpha 1 (col1α1), collagen type III alpha 1 (col3α1), collagen type IV alpha 1 (col4α1), E-cadherin (E-Cad), and α-SMA proteins.

[3] = system: bleomycin-induced pulmonary fibrosis; assay: Bleomycin-induced pulmonary fibrosis in mice; type: in vivo, C57BL/6J male mice; conditions: for collagen deposition in lung tissue (Masson staining): 1 mg/kg and 5 mg/kg BLM; for body weight: inhibitor 0.79 mg/kg per day by gavage for 14 days from day 14 after modeling
Procedure: The dosage was 0.79 mg/kg per day, and the administration route was intragastric gavage. When used, the drug was dissolved in H2O containing 0.3% Tween 80.
C57BL/6J male mice (8-10 weeks old, weighing 24-25 g) were purchased from Beijing Huafukang Biotechnology Co., Ltd. The mice were housed in a specific pathogen-free (SPF) environment, with the room temperature maintained at 20-25° C. and the humidity controlled at 50-60%. The mice were fed normally, and the light was adjusted to a 12 h light/dark cycle. Before modeling, the mice were acclimatized to the corresponding environment for 1 week. All animal experiments were conducted in compliance with the animal care regulations and guidelines of Tianjin Medical University and were approved by the Animal Committee of Tianjin Medical University.
1. Prediluted bleomycin was prepared, and doses of 1 mg/kg and 5 mg/kg were administered on the basis of the body weights of the mice.
7. The mouse's tongue was gently pulled to one side toward the mandible with sterile padded forceps to expose the vocal cords; then, the pipette tip loaded with bleomycin was lowered to the back of the oral cavity, and the liquid was delivered through the vocal cords during inhalation. The sounds of wheezing were waited to confirm that the liquid was delivered into the trachea. For animals in the control group, an equal volume of sterile PBS was used instead of the bleomycin solution.
10. The mice were monitored daily until they were euthanized for analysis. RG1678 or water containing 0.3% Tween 80 was added to the mice by gavage every day according to their groupings.
11. When the experiment reached the appropriate time point, the mice were euthanized, their eyeballs were removed for blood collection, and then the mice were dissected to collect samples.
Mice in different groups were generated according to the abovementioned methods. The mice in the control group were given normal saline, while the mice in the experimental groups were given bleomycin at different concentrations. Fourteen days after modeling, the mice were intragastrically administered either ddH2O containing 0.3% Tween 80 or RG1678 prepared in ddH2O containing 0.3% Tween 80 via continuous gavage for 14 days; the specific experimental conditions are shown in Table 1.
1. Bleomycin stock solution (10 mg/mL): First, 10 mg of bleomycin was weighed and dissolved in 1 mL of 0.9% sodium chloride. The instillation volume for each mouse was calculated on the basis of its body weight, with the instillation volume per mouse being approximately 50 μL. The stock solution was diluted to 0.5 mg/mL and 2.5 mg/mL for subsequent instillation according to the different groups (1 mg/kg and 5 mg/kg).
3. RG1678 (0.79 mg/mL): An appropriate amount of RG1678 was dissolved in ddH2O containing 0.3% Tween 80 to prepare a stock working solution of 0.79 mg/mL. The intragastric administration volume was then calculated on the basis of the mouse's body weight, with approximately 200 μL per mouse. Before use, the stock solution was diluted to a working concentration of […].
The body weights of the mice were measured before modeling, and their body weights were monitored daily during the experiment to observe changes. A comparison was made between the body weight at the end of the experiment and that at the beginning.
To further observe lung tissue damage in mice in detail, pathological detection was performed on the mouse lung tissues in this example.
Masson staining was performed on mouse lung tissue sections. Masson staining is an experimental method used to detect the secretion and deposition levels of collagen fibers in tissues. After treatment with different staining solutions, the overall background of the tissue section appeared red, the cell nuclei were black, and the collagen fibers were blue. The content of collagen fibers can be evaluated on the basis of the depth of the blue color and the scope of its distribution. […]

[4] = intervention initiated 14 days after BLM modeling, lung paraffin sections
[5] = treatment for 14 days from day 14 after modeling, compared with BLM group

Row | Compound | viability of A549 cells (A549 cells [1]; 10 μM bleomycin) | viability of A549 cells (A549 cells [1]; 25 μM BLM) | viability of A549 cells with increasing concentrations (A549 cells [1]; increasing concentrations) | viability of A549 cells (A549 cells [1]; human, 380 nM) | E-cadherin protein expression level (A549 cells [2]) | col1α1 protein expression level (A549 cells [2]) | col3α1 protein expression level (A549 cells [2]) | col4α1 protein expression level (A549 cells [2]) | α-SMA protein expression level (A549 cells [2]) | collagen deposition in lung tissue (Masson staining) ([3]; compared with BLM group, listed as GLYT1 IN) | collagen deposition in lung tissue (Masson staining) ([3]; compared with BLM group, listed as GlyT1 inhibitor 1) | body weight ([3]; BLM 1 or 5 mg/kg, compared with BLM group) | body weight ([3]; BLM 1 or 5 mg/kg, compared with BLM group, listed as GLYT1 IN) | change in lung weight/body weight ratio ([3]; BLM 1 or 5 mg/kg, inhibitor by gavage for 14 days from day 14 after modeling, compared with BLM group (**P<0.01, ***P<0.001)) | general condition changes after modeling (delayed responses, huddling, trembling, cyanosis, decreased food intake, wrinkled skin) ([3]; BLM+RG1678 group compared with BLM group) | BLM-induced lung tissue consolidation (HE staining) [3, 4] | degree of fibrosis (HE staining) [3, 4] | collagen deposition in lung tissue (Sirius Red staining) ([3]; intervention initiated 14 days after modeling, compared with BLM stimulation) | deposition of type I collagen in lung tissue (immunohistochemistry) [3, 5] | deposition of type III collagen in lung tissue (immunohistochemistry) [3, 5]
1 | bleomycin | significantly affected | approximately 80% | decreased | – | – | – | – | – | – | – | – | – | – | – | – | – | – | – | – | –
2 | C[C@H](Oc1ccc(S(C)(=O)=O)cc1C(=O)N1CCN(c2ncc(C(F)(F)F)cc2F)CC1)C(F)(F)F [RG1678] | – | – | – | greater than 50% | significantly increased | significantly decreased | significantly decreased | significantly decreased | significantly decreased | not obvious | significantly reduce | less pronounced decrease | significantly greater | significantly alleviated | milder degrees | reduced | significantly alleviated | significantly reduced | significantly lower | significantly lower
